{"source": "patent US10744114B2", "about": "“Use of eupatilin as pharmaceutical composition for prevention and treatment of fibrosis using EMT inhibitory activity” (OSTEONEUROGEN INC., priority 2016, dated 2020)", "key": {"[1]": {"experiment": "Observation of toxic symptoms and death after administration", "type": "in vivo, C57BL/6J mice", "conditions": "2 to 3 days after administration, nasal, bleomycin-treated mice", "description": "Eupatilin was used by being dissolved in a DPBS buffer (containing 1% DMSO), and the amount of eupatilin that was administered was 1 mL/kg, and the dose for each individual was calculated based on the recent body weight thereof 12 days after the administration of bleomycin, eupatilin was forcibly nasally administered once a day (5 times a week) for 1 week using a micropipette."}, "[2]": {"tested_on": "ONGHEPA1 cells", "experiment": "TGF-β-induced fibrosis of ONGHEPA1 cells (microscope)", "type": "cell-based, mouse", "conditions": "for inhibition of the progress of fibrosis (differentiation into myofibroblasts): TGF-β 5 ng/mL plus 50 μM compound, 24 hr", "text": "The liver tissue was separated from C57BL/6 mice and a single-cell suspension thereof was made, and immortalized cells were obtained through continuous culture and were confirmed to be mesenchymal stem cells (MSC) of HSC via RT-PCR (Reverse Transcription Polymerase Chain Reaction) using MC (Immunohistochemistry) and FACS (Fluorescence-Activated Cell Sorting). This cell line was called “ONGHEPA1”, and was deposited with the Korean Collection for Type Cultures (KCTC) of the Korea Research Institute of Bioscience and Biotechnology and assigned accession number KCTC13086BP.\nUsing such properties of HSC, the fibrotic characteristics of ONGHEPA1 were measured. To induce fibrosis, TGF-β (transforming growth factor beta) was added, and the morphologies of the cells were observed after 6 hr, 12 hr, 24 hr, and 48 hr. Consequently, fibrosis was confirmed to progress considerably after 24 hr and further progress after 48 hr (A of FIG. 6).\nWhile ONGHEPA1 cells were incubated, they were treated with TGF-β to induce fibrosis, and 50 μM of eupatilin was added to the culture medium.\nIn order to more clearly evaluate the effect of eupatilin as above, changes were measured when ONGHEPA1 cells were first treated with eupatilin, washed to remove eupatilin and then treated with TGF-β to induce fibrosis. […] This means that eupatilin is directly associated with the course of fibrosis to thus inhibit the progress of fibrosis.\nOn the contrary, changes were measured when ONGHEPA1 cells were first treated with TGF-β to induce fibrosis, washed to remove TGF-β and then treated with eupatilin. […] Even when fibrosis was already progressed, eupatilin was able to restore the cells to their original normal condition.\nIn order to more clearly evaluate whether eupatilin was able to restore the cells that already undergone fibrosis to normal cells, changes were measured when ONGHEPA1 cells were treated with TGF-β for 24 hr to induce complete fibrosis and then treated with eupatilin. […] This means that fibrosis that has progressed considerably can be effectively treated using eupatilin.\nThe effects of various chromone derivatives other than eupatilin on fibrosis were measured in the same manner as in Example 3-3. While ONGHEPA1 cells were incubated, fibrosis was induced by TGF-β, and a chromone derivative was added at a concentration of 50 μM to the culture medium."}}}
{"smiles": "COc1ccc(-c2cc(=O)c3c(O)c(OC)c(O)cc3o2)cc1OC", "note": "[eupatilin, 2-(3,4-dimethoxyphenyl)-5,7-dihydroxy-6-methoxy-chromone]", "values": [{"measurement": "toxic symptoms and occurrence of death", "setting": "[1]", "result": "no particularly abnormal symptoms were observed"}, {"measurement": "inhibition of the progress of fibrosis (differentiation into myofibroblasts)", "setting": "[2]", "result": "fibrosis were not observed"}, {"measurement": "inhibition of the progress of fibrosis (differentiation into myofibroblasts)", "setting": "[2]; listed as Chemical Formula 2", "result": "superior fibrosis-inhibiting effects"}, {"measurement": "restoration of cells after TGF-β pretreatment", "setting": "[2]; TGF-β 1 to 12 hr, washed, then eupatilin 50 μM 24 hr", "result": "normal cells such as a control group were maintained"}, {"measurement": "restoration of completely fibrotic cells", "setting": "[2]; TGF-β 24 hr, washed, then eupatilin 50 μM and TGF-β 24 hr", "result": "restore the cells in which fibrosis has been completely induced by TGF-β to their normal condition"}, {"measurement": "inhibition of the progress of fibrosis after pretreatment", "setting": "[2]; eupatilin 2 to 6 hr, washed, then TGF-β 24 hr", "result": "the progress of fibrosis was not inhibited"}, {"measurement": "influence on normal HSC", "setting": "[2]; eupatilin pretreatment, washed, then TGF-β", "result": "no influence on normal HSC"}]}
